Read-outs that look alike come from different tables or passages of the source.

The source of these data is patent US10265307B2, “Thiazolecarboxamides and pyridinecarboxamide compounds useful as Pim kinase inhibitors” (Incyte Corporation, priority 2013, dated 2019).

Common to all, as to assay type: biochemical
In one assay the target is Pim-1 (Homo sapiens (Human), UniProt P11309). Description: Pim-1 kinase assay. Conditions: 1 mM ATP; read-out: Pim1 IC50. How it is done:
Supplementation of the STOP buffer with beads and stopping the reactions were done under reduced light. Prior to the stopping reactions STOP buffer with beads was pre-incubated for 1 h in the dark at room temperature. After stopping the reactions, plates were incubated for 1 h in the dark at room temperature before reading on a PHERAstar FS plate reader (BMG Labtech) under reduced light.

Another assay deals with Pim-2 (Homo sapiens (Human), UniProt Q9P1W9). The assay can be described thus: Pim-2 kinase assay. How it is done: Pim-2 kinase assay-20 μL reactions were run in white 384 well polystyrene plates dotted with 0.8 μL compound/DMSO in the assay buffer (50 mM Tris, pH 7.5, 0.01% Tween-20, 5 mM MgCl2, 0.01% BSA, 5 mM DTT), containing 0.05 μM Fluorescein-labeled CREBtide peptide substrate (Invitrogen PV3508), 1 mM ATP, and 1 nM enzyme (Invitrogen PV3649) for 2 h at 25° C. Reactions were stopped by addition of 10 μL TR-FRET Dilution Buffer (Invitrogen PV3574) with 30 mM EDTA and 1.5 nM LanthaScreen Tb-CREB pSer133 antibody (Invitrogen PV3566). After 30 min. incubation at room temperature, plates were read on a PHERAstar FS plate reader (BMG Labtech).
Although the above in vitro assays are conducted at 1 mM ATP compounds can also be evaluated for potency and in vitro activity against PIM targets utilizing Km conditions, where the concentration of ATP is set to the Km value and the assay is more sensitive to PIM inhibition activity.

The target of a further assay is Pim-3 (Homo sapiens (Human), UniProt Q86V86). The assay can be described thus: Pim-3 kinase assay. Conditions: 1 mM ATP; read-out: Pim3 IC50. How it is done:
Pim-1 and Pim-3 kinase assays-20 μL reactions were run in white 384 well polystyrene plates dotted with 0.8 μL compound/DMSO in the assay buffer (50 mM Tris, pH 7.5, 0.01% Tween-20, 5 mM MgCl2, 0.01% BSA, 5 mM DTT), containing 0.05 μM Biotin-labeled BAD peptide substrate (AnaSpec 62269), 1 mM ATP, and […] (Pim-1, Invitrogen PV3503) or […] (Pim-3, Millipore 14-738) enzyme for 1 h at 25° C. Reactions were stopped by addition of 10 μL STOP Buffer (150 mM Tris, pH=7.5, 150 mM NaCl, 75 mM EDTA, 0.01% Tween-20, 0.3% BSA) supplemented with Phospho-Bad (Ser112) Antibody (Cell Signaling 9291) diluted 666-fold, and Streptavidin donor beads (PerkinElmer 6760002) along with Protein-A acceptor beads (PerkinElmer 6760137) at 15 μg/mL each. Supplementation of the STOP buffer with beads and stopping the reactions were done under reduced light. Prior to the stopping reactions STOP buffer with beads was pre-incubated for 1 h in the dark at room temperature. After stopping the reactions, plates were incubated for 1 h in the dark at room temperature before reading on a PHERAstar FS plate reader (BMG Labtech) under reduced light.

Sequence of Pim-2 (Q9P1W9 whole entry): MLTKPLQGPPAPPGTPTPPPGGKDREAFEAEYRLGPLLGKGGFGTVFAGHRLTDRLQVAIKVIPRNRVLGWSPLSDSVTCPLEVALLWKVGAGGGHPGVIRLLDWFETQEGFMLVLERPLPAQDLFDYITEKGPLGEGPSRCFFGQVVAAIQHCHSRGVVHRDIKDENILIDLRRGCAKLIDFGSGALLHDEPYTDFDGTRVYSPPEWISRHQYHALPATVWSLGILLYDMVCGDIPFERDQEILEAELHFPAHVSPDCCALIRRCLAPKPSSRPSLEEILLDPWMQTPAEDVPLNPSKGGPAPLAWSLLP
Sequence of Pim-1 (P11309 whole entry): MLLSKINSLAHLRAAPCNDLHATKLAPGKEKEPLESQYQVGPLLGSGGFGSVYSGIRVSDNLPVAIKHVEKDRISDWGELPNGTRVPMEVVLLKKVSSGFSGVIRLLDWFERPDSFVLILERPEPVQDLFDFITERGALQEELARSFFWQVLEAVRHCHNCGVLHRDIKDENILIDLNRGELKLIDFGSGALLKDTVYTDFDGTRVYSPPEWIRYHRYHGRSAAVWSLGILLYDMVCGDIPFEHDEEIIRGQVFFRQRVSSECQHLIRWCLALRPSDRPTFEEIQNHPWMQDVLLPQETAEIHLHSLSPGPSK

In the case of `C[C@H]1CN(c2c(NC(=O)c3nc(-c4c(F)cccc4F)sc3N)cnc3c2CCO3)C[C@@H](N)[C@@H]1O` [Example 40, 5-Amino-N-{4-[(3R,4R,5S)-3-amino-4-hydroxy-5-methylpiperidin-1-yl]-2,3-dihydrofuro[2,3-b]pyridin-5-yl}-2-(2,6-difluorophenyl)-1,3-thiazole-4-carboxamide], the IC50 on Pim-1 was no more than 100 nM; at Pim-2 (1 mM ATP, read-out: Pim2 IC50) it was no more than 100 nM; at Pim-3, no more than 100 nM.

Turning to `COc1ccc(F)c(-c2nc(C(=O)Nc3cnc4c(c3N3C[C@H](C)C[C@H](N)C3)CCC4O)ccc2F)c1F` (single isomer, unassigned) [56 (Diastereoisomer 2)], the IC50 on Pim-1 is no more than 100 nM; on Pim-2 (1 mM ATP, read-out: Pim2 IC50) it was no more than 100 nM; on Pim-3, no more than 100 nM.

For the molecule `C[C@@H]1C[C@H](N)CN(c2c(NC(=O)c3ccc(F)c(-c4c(F)cc(OC5CCCOC5)cc4F)n3)cnc3c2CCC3O)C1` (single isomer, unassigned) [70 (Diastereoisomer 2)], the IC50 on Pim-1 is no more than 100 nM; on Pim-2 (1 mM ATP, read-out: Pim2 IC50), no more than 100 nM; on Pim-3, no more than 100 nM.

As for `C[C@@H]1C[C@H](N)CN(c2c(NC(=O)c3ccc(F)c(-c4c(F)cccc4F)n3)cnc3c2CCC3O)C1` (single isomer, unassigned) [45 (Diastereoisomer 1)], the IC50 was no more than 100 nM on Pim-1; no more than 100 nM at Pim-2 (1 mM ATP, read-out: Pim2 IC50); no more than 100 nM at Pim-3.

Take `C[C@H]1CN(c2c(NC(=O)c3ccc(F)c(-c4c(F)cccc4F)n3)cnc3c2CCC3O)C[C@@H](N)[C@@H]1O` (single isomer, unassigned) [37 (Diastereoisomer 1)]: the IC50 on Pim-1 was no more than 100 nM; at Pim-2 (1 mM ATP, read-out: Pim2 IC50), no more than 100 nM; at Pim-3, no more than 100 nM.

On to `C[C@H]1CN(c2c(NC(=O)c3ccc(F)c(-c4c(F)cc(C(C)(C)O)cc4F)n3)cnc3c2CCO3)C[C@@H](N)[C@@H]1O` [Example 65, N-{4-[(3R,4R,5S)-3-Amino-4-hydroxy-5-methylpiperidin-1-yl]-2,3-dihydrofuro[2,3-b]pyridin-5-yl}-6-[2,6-difluoro-4-(1-hydroxy-1-methylethyl)phenyl]-5-fluoropyridine-2-carboxamide], for which the IC50 was no more than 100 nM at Pim-1; no more than 100 nM on Pim-2 (1 mM ATP, read-out: Pim2 IC50); no more than 100 nM on Pim-3.

As to `Nc1ncc(-c2c(F)cccc2F)nc1C(=O)Nc1cnc2c(c1N1CCC[C@H](N)C1)CCC2O` (single isomer, unassigned) [62 (Diastereoisomer 2)], the IC50 at Pim-1 was no more than 100 nM; on Pim-2 (1 mM ATP, read-out: Pim2 IC50), 100 to 1000 nM; on Pim-3, no more than 100 nM.

Take `Nc1sc(-c2c(F)cccc2F)nc1C(=O)Nc1cnc2c(c1N1CCC[C@H](N)C1)CCCN2` [Example 31, 5-Amino-N-{4-[(3S)-3-aminopiperidin-1-yl]-5,6,7,8-tetrahydro-1,8-naphthyridin-3-yl}-2-(2,6-difluorophenyl)-1,3-thiazole-4-carboxamide]: the IC50 was no more than 100 nM at Pim-1; no more than 100 nM at Pim-2 (1 mM ATP, read-out: Pim2 IC50); no more than 100 nM at Pim-3.

As for `CSc1cc(F)c(-c2nc(C(=O)Nc3cnc4c(c3N3CCC[C@H](N)C3)CCC4O)ccc2F)c(F)c1` (single isomer, unassigned) [58 (Diastereoisomer 2)], the IC50 on Pim-1 is no more than 100 nM; at Pim-2 (1 mM ATP, read-out: Pim2 IC50), 100 to 1000 nM; on Pim-3, no more than 100 nM.

With `C[C@@H]1C[C@H](N)CN(c2c(NC(=O)c3ccc(F)c(-c4c(F)cccc4F)n3)cnc3c2CCO3)C1` [Example 39, N-{4-[(3S,5R)-3-Amino-5-methylpiperidin-1-yl]-2,3-dihydrofuro[2,3-b]pyridin-5-yl}-6-(2,6-difluorophenyl)-5-fluoropyridine-2-carboxamide], the IC50 on Pim-1 was no more than 100 nM; at Pim-2 (1 mM ATP, read-out: Pim2 IC50) it was no more than 100 nM; at Pim-3 it was no more than 100 nM.

For the molecule `CS(=O)(=O)c1cc(F)c(-c2nc(C(=O)Nc3cnc4c(c3N3CCC[C@H](N)C3)CCC4O)ccc2F)c(F)c1` (single isomer, unassigned) [61 (Diastereoisomer 2)], the IC50 on Pim-1 was no more than 100 nM; at Pim-2 (1 mM ATP, read-out: Pim2 IC50), 100 to 1000 nM; on Pim-3, no more than 100 nM.

`C[C@@H]1C[C@H](N)CN(c2c(NC(=O)c3nc(-c4c(F)cccc4F)c(F)cc3N)cnc3c2CCO3)C1` [Example 38, 3-Amino-N-{4-[(3S,5R)-3-amino-5-methylpiperidin-1-yl]-2,3-dihydrofuro[2,3-b]pyridin-5-yl}-6-(2,6-difluorophenyl)-5-fluoropyridine-2-carboxamide]: the IC50 is no more than 100 nM at Pim-1; no more than 100 nM on Pim-2 (1 mM ATP, read-out: Pim2 IC50); no more than 100 nM on Pim-3.

Consider `Nc1sc(-c2c(F)cccc2F)nc1C(=O)Nc1cnc2c(c1N1CC[C@@H](O)[C@@H](N)C1)CCC2` (single isomer, unassigned) [Example 26], for which the IC50 at Pim-1 was no more than 100 nM; at Pim-2 (1 mM ATP, read-out: Pim2 IC50), greater than 2000 nM; at Pim-3 it was no more than 100 nM.

For `N[C@H]1CCCN(c2c(NC(=O)c3csc(-c4c(F)cccc4F)n3)cnc3c2CCO3)C1` [Example 10, N-{4-[(3S)-3-Aminopiperidin-1-yl]-2,3-dihydrofuro[2,3-b]pyridin-5-yl}-2-(2,6-difluorophenyl)-1,3-thiazole-4-carboxamide], the IC50 at Pim-1 is no more than 100 nM; on Pim-2 (1 mM ATP, read-out: Pim2 IC50), 100 to 1000 nM; on Pim-3 it was no more than 100 nM.

For `CC1(N)CCCN(c2c(NC(=O)c3nc(-c4c(F)cccc4F)sc3N)cnc3c2CCC3)C1` (stereo not shown) [Example 57, 5-Amino-N-[4-(3-amino-3-methylpiperidin-1-yl)-6,7-dihydro-5H-cyclopenta[b]pyridin-3-yl]-2-(2,6-difluorophenyl)-1,3-thiazole-4-carboxamide], the IC50 at Pim-1 was no more than 100 nM; at Pim-2 (1 mM ATP, read-out: Pim2 IC50) it was 100 to 1000 nM; on Pim-3 it was no more than 100 nM.

For `Nc1sc(-c2c(F)cccc2F)nc1C(=O)Nc1cnc2ccsc2c1N1CC[C@@H](O)[C@H](N)C1` (single isomer, unassigned) [Example 29, 5-Amino-N-{7-[3,4-trans-3-amino-4-hydroxypiperidin-1-yl]thieno[3,2-b]pyridin-6-yl}-2-(2,6-difluorophenyl)-1,3-thiazole-4-carboxamide], the IC50 is no more than 100 nM on Pim-1; 100 to 1000 nM at Pim-2 (1 mM ATP, read-out: Pim2 IC50); no more than 100 nM at Pim-3.

For the molecule `C[C@H]1CN(c2c(NC(=O)c3nc(-c4c(F)cccc4F)sc3N)cnc3c2CCC3)C[C@@H](N)[C@@H]1O` [Example 28, 5-Amino-N-{4-[(3R,4R,5S)-3-amino-4-hydroxy-5-methylpiperidin-1-yl]-6,7-dihydro-5H-cyclopenta[b]pyridin-3-yl}-2-(2,6-difluorophenyl)-1,3-thiazole-4-carboxamide], the IC50 at Pim-1 was no more than 100 nM; on Pim-2 (1 mM ATP, read-out: Pim2 IC50), no more than 100 nM; on Pim-3, no more than 100 nM.

For `Nc1sc(-c2c(F)cccc2F)nc1C(=O)Nc1cnc2c(c1N1C[C@@H](N)C[C@@H](C(F)(F)F)C1)CCC2O` (single isomer, unassigned) [44 (Diastereoisomer 1)], the IC50 at Pim-1 is no more than 100 nM; at Pim-2 (1 mM ATP, read-out: Pim2 IC50), no more than 100 nM; at Pim-3, no more than 100 nM.

Take `C[C@@H]1C[C@H](N)CN(c2c(NC(=O)c3nc(-c4c(F)cccc4F)sc3N)cnc3c2CCO3)C1` [Example 36, 5-Amino-N-{4-[(3S,5R)-3-amino-5-methylpiperidin-1-yl]-2,3-dihydrofuro[2,3-b]pyridin-5-yl}-2-(2,6-difluorophenyl)-1,3-thiazole-4-carboxamide]: the IC50 was no more than 100 nM at Pim-1; no more than 100 nM on Pim-2 (1 mM ATP, read-out: Pim2 IC50); no more than 100 nM on Pim-3.

Turning to `N[C@H]1CCCN(c2c(NC(=O)c3csc(-c4c(F)cccc4F)n3)cnc3[nH]ncc23)C1` [compound 35], on Pim-2 (Km ATP concentration rather than 1 mM, read-out: Pim2 IC50 at Km ATP concentration), the IC50 lay in the range of 1000 to 10000 nM.
